Laboratory results published in US11149023B2, “Substituted triazole derivatives and uses thereof” (Bayer Pharma Aktiengesellschaft, priority 2017, dated 2021).
pIC50: −log10 of the molar value.

Assays:
human V2 receptor = human V2 receptor (Homo sapiens (Human), UniProt P30518); assay: Cellular in vitro assay for determining vasopressin receptor activity (V2, CRE-luciferase); format: cell-based; conditions: CHO cell line transfected with human V2 receptor; [Arg8]-vasopressin at EC50 concentration; read-out: IC50 hV2
human V2 receptor, sequence (P30518 whole entry): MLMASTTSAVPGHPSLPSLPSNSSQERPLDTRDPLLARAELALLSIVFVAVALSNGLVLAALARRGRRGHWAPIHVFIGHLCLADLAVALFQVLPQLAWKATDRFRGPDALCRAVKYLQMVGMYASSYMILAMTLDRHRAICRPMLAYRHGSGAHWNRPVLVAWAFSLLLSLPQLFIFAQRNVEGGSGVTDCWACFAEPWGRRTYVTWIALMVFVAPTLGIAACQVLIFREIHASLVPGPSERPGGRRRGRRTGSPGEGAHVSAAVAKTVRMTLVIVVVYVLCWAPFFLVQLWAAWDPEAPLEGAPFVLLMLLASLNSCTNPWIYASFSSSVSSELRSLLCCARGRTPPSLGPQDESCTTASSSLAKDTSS

human V1a receptor = human V1a receptor (Homo sapiens (Human), UniProt P37288); assay: Cellular in vitro assay for determining vasopressin receptor activity (V1a, aequorin luminescence); format: cell-based; conditions: for pIC50: CHO cell line transfected with human V1a receptor, [Arg8]-vasopressin at EC50 concentration, read-out: IC50 hV1a; for ratio IC50 hV2/hV1a: selectivity, IC50 hV2 divided by IC50 hV1a
human V1a receptor, sequence (P37288 whole entry): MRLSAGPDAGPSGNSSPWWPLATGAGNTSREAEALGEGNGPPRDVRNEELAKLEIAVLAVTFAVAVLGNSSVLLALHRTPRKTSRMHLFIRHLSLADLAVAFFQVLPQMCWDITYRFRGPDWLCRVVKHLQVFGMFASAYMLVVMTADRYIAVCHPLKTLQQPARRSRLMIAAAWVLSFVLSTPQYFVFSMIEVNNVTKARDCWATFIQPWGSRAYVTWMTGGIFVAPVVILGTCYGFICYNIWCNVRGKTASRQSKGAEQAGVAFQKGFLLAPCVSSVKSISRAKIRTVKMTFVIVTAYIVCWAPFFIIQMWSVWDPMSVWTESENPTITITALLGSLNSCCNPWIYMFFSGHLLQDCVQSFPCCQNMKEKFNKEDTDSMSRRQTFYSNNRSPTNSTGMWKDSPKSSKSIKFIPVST

Row | pIC50 (human V2 receptor) | pIC50 (human V1a receptor) | ratio IC50 hV2/hV1a (human V1a receptor) | SMILES
1 | 5.25 | 6.67 | – | O=C(CCC(F)(F)F)NC(Cn1c(-c2ccc(Cl)cc2)nn(Cc2ncn(-c3ncccc3Cl)n2)c1=O)C(F)(F)F (single isomer, unassigned) [Example 33, N-{3-[3-(4-Chlorophenyl)-1-{[1-(3-chloropyridin-2-yl)-1H-1,2,4-triazol-3-yl]methyl}-5-oxo-1,5-dihydro-4H-1,2,4-triazol-4-yl]-1,1,1-trifluoropropan-2-yl}-4,4,4-trifluorobutanamide]
2 | 7.47 | 9.09 | – | O=C(CCC(F)(F)F)NC(Cn1c(-c2ccc(Cl)cc2)nn(Cc2ncn(-c3ncccc3Cl)n2)c1=O)C(F)(F)F (single isomer, unassigned) [Example 34, N-{3-[3-(4-Chlorophenyl)-1-{[1-(3-chloropyridin-2-yl)-1H-1,2,4-triazol-3-yl]methyl}-5-oxo-1,5-dihydro-4H-1,2,4-triazol-4-yl]-1,1,1-trifluoropropan-2-yl}-4,4,4-trifluorobutanamide]
3 | 6.05 | 8.46 | 254.3 | O=C1CC[C@@H](C(=O)NC(Cn2c(-c3ccc(Cl)cc3)nn(Cc3ncn(-c4ncccc4Cl)n3)c2=O)C(F)(F)F)N1 (single isomer, unassigned) [Example 36, N-{3-[3-(4-Chlorophenyl)-1-{[1-(3-chloropyridin-2-yl)-1H-1,2,4-triazol-3-yl]methyl}-5-oxo-1,5-dihydro-4H-1,2,4-triazol-4-yl]-1,1,1-trifluoropropan-2-yl}-5-oxo-L-prolinamide]
4 | 4.49 | 6.53 | 108.5 | O=C1CC[C@@H](C(=O)NC(Cn2c(-c3ccc(Cl)cc3)nn(Cc3ncn(-c4ncccc4Cl)n3)c2=O)C(F)(F)F)N1 (single isomer, unassigned) [Example 37, N-{3-[3-(4-Chlorophenyl)-1-{[1-(3-chloropyridin-2-yl)-1H-1,2,4-triazol-3-yl]methyl}-5-oxo-1,5-dihydro-4H-1,2,4-triazol-4-yl]-1,1,1-trifluoropropan-2-yl}-5-oxo-L-prolinamide]
5 | 7.27 | 9.32 | – | O=C(NC(Cn1c(-c2ccc(Cl)cc2)nn(Cc2ncn(-c3ncccc3Cl)n2)c1=O)C(F)(F)F)C1CS(=O)(=O)C1 (single isomer, unassigned) [Example 39, N-{3-[3-(4-Chlorophenyl)-1-{[1-(3-chloropyridin-2-yl)-1H-1,2,4-triazol-3-yl]methyl}-5-oxo-1,5-dihydro-4H-1,2,4-triazol-4-yl]-1,1,1-trifluoropropan-2-yl}thietane-3-carboxamide 1,1-dioxide]
6 | 5.01 | 6.43 | – | O=C(NC(Cn1c(-c2ccc(Cl)cc2)nn(Cc2ncn(-c3ncccc3Cl)n2)c1=O)C(F)(F)F)C1CS(=O)(=O)C1 (single isomer, unassigned) [Example 40, N-{3-[3-(4-Chlorophenyl)-1-{[1-(3-chloropyridin-2-yl)-1H-1,2,4-triazol-3-yl]methyl}-5-oxo-1,5-dihydro-4H-1,2,4-triazol-4-yl]-1,1,1-trifluoropropan-2-yl}thietane-3-carboxamide 1,1-dioxide]
7 | 4.92 | 5.87 | – | O=C(NC(Cn1c(-c2ccc(Cl)cc2)nn(Cc2ncn(-c3ncccc3Cl)n2)c1=O)C(F)(F)F)C1(C(F)(F)F)CC1 (single isomer, unassigned) [Example 42, N-{3-[3-(4-Chlorophenyl)-1-{[1-(3-chloropyridin-2-yl)-1H-1,2,4-triazol-3-yl]methyl}-5-oxo-1,5-dihydro-4H-1,2,4-triazol-4-yl]-1,1,1-trifluoropropan-2-yl}-1-(trifluoromethyl)cyclopropane-carboxamide]
8 | 5.64 | 6.63 | – | CS(=O)(=O)CC(=O)NC(Cn1c(-c2ccc(Cl)cc2)nn(Cc2ncn(-c3ncccc3Cl)n2)c1=O)C(F)(F)F (single isomer, unassigned) [Example 45, N-{3-[3-(4-Chlorophenyl)-1-{[1-(3-chloropyridin-2-yl)-1H-1,2,4-triazol-3-yl]methyl}-5-oxo-1,5-dihydro-4H-1,2,4-triazol-4-yl]-1,1,1-trifluoropropan-2-yl}-2-(methylsulfonyl)acetamide]
9 | 7.24 | 8.87 | – | CS(=O)(=O)CC(=O)NC(Cn1c(-c2ccc(Cl)cc2)nn(Cc2ncn(-c3ncccc3Cl)n2)c1=O)C(F)(F)F (single isomer, unassigned) [Example 46, N-{3-[3-(4-Chlorophenyl)-1-{[1-(3-chloropyridin-2-yl)-1H-1,2,4-triazol-3-yl]methyl}-5-oxo-1,5-dihydro-4H-1,2,4-triazol-4-yl]-1,1,1-trifluoropropan-2-yl}-2-(methylsulfonyl)acetamide]
10 | 5.62 | 7.39 | 59.3 | O=C1NCC(C(=O)NC(Cn2c(-c3ccc(Cl)cc3)nn(Cc3ncn(-c4ncccc4Cl)n3)c2=O)C(F)(F)F)N1 (stereo not drawn) [Example 2]
11 | 6.35 | 8.39 | 108.5 | O=C(NC(Cn1c(-c2ccc(Cl)cc2)nn(Cc2ncn(-c3ncccc3Cl)n2)c1=O)C(F)(F)F)C1CCO1 (stereo not drawn) [Example 3, N-{3-[3-(4-Chlorophenyl)-1-{[1-(3-chloropyridin-2-yl)-1H-1,2,4-triazol-3-yl]methyl}-5-oxo-1,5-dihydro-4H-1,2,4-triazol-4-yl]-1,1,1-trifluoropropan-2-yl}oxetane-2-carboxamide]
12 | 6.89 | 8.78 | 78.8 | O=C(NC(Cn1c(-c2ccc(Cl)cc2)nn(Cc2ncn(-c3ncccc3Cl)n2)c1=O)C(F)(F)F)C1CC1(F)F (stereo not drawn) [Example 7, N-{3-[3-(4-Chlorophenyl)-1-{[1-(3-chloropyridin-2-yl)-1H-1,2,4-triazol-3-yl]methyl}-5-oxo-1,5-dihydro-4H-1,2,4-triazol-4-yl]-1,1,1-trifluoropropan-2-yl}-2,2-difluorocyclopropanecarboxamide]
13 | 6.44 | 8.21 | 59.8 | CC(F)C(=O)NC(Cn1c(-c2ccc(Cl)cc2)nn(Cc2ncn(-c3ncccc3Cl)n2)c1=O)C(F)(F)F (stereo not drawn) [Example 10]
14 | 6.25 | 7.65 | 24.9 | O=C(NC(Cn1c(-c2ccc(Cl)cc2)nn(Cc2ncn(-c3ncccc3Cl)n2)c1=O)C(F)(F)F)C1CC1F (stereo not drawn) [Example 12, N-{3-[3-(4-Chlorophenyl)-1-{[1-(3-chloropyridin-2-yl)-1H-1,2,4-triazol-3-yl]methyl}-5-oxo-1,5-dihydro-4H-1,2,4-triazol-4-yl]-1,1,1-trifluoropropan-2-yl}-2-fluorocyclopropanecarboxamide]
15 | 7.47 | 8.60 | 13.4 | O=C(NC(Cn1c(-c2ccc(Cl)cc2)nn(Cc2ncn(-c3ncccc3Cl)n2)c1=O)C(F)(F)F)C1CC1C(F)(F)F (stereo not drawn) [Example 18, N-{3-[3-(4-Chlorophenyl)-1-{[1-(3-chloropyridin-2-yl)-1H-1,2,4-triazol-3-yl]methyl}-5-oxo-1,5-dihydro-4H-1,2,4-triazol-4-yl]-1,1,1-trifluoropropan-2-yl}-2-(trifluoromethyl)cyclopropanecarboxamide]
16 | 7.14 | 9.00 | – | CC(C)(C)OC(=O)N1CCC(C(=O)NC(Cn2c(-c3ccc(Cl)cc3)nn(Cc3ncn(-c4ncccc4Cl)n3)c2=O)C(F)(F)F)C1 (stereo not drawn) [Example 23, tert-Butyl 3-({3-[3-(4-chlorophenyl)-1-{[1-(3-chloropyridin-2-yl)-1H-1,2,4-triazol-3-yl]methyl}-5-oxo-1,5-dihydro-4H-1,2,4-triazol-4-yl]-1,1,1-trifluoropropan-2-yl}carbamoyl)pyrrolidine-1-carboxylate]
17 | 6.15 | 8.36 | 160.8 | O=C(NC(Cn1c(-c2ccc(Cl)cc2)nn(Cc2ncn(-c3ncccc3Cl)n2)c1=O)C(F)(F)F)C1CCNC1 (stereo not drawn) [Example 24, N-{3-[3-(4-Chlorophenyl)-1-{[1-(3-chloropyridin-2-yl)-1H-1,2,4-triazol-3-yl]methyl}-5-oxo-1,5-dihydro-4H-1,2,4-triazol-4-yl]-1,1,1-trifluoropropan-2-yl}pyrrolidine-3-carboxamide]
18 | 7.65 | 8.73 | – | CC(C)(C)OC(=O)NC1(C(=O)NC(Cn2c(-c3ccc(Cl)cc3)nn(Cc3ncn(-c4ncccc4Cl)n3)c2=O)C(F)(F)F)CCC1 (stereo not drawn) [Example 28, tert-Butyl [1-({3-[3-(4-chlorophenyl)-1-{[1-(3-chloropyridin-2-yl)-1H-1,2,4-triazol-3-yl]methyl}-5-oxo-1,5-dihydro-4H-1,2,4-triazol-4-yl]-1,1,1-trifluoropropan-2-yl}carbamoyl)cyclobutyl]-carbamate]
19 | 6.67 | 8.20 | 33.9 | O=C(NC(Cn1c(-c2ccc(Cl)cc2)nn(Cc2ncn(-c3ncccc3Cl)n2)c1=O)C(F)(F)F)C1CCS(=O)(=O)C1 (stereo not drawn) [Example 30, N-{3-[3-(4-Chlorophenyl)-1-{[1-(3-chloropyridin-2-yl)-1H-1,2,4-triazol-3-yl]methyl}-5-oxo-1,5-dihydro-4H-1,2,4-triazol-4-yl]-1,1,1-trifluoropropan-2-yl}tetrahydrothiophene-3-carboxamide 1,1-dioxide]
20 | 7.24 | 8.85 | 40.9 | O=C(N[C@@H](Cn1c(-c2ccc(Cl)cc2)nn(Cc2ncn(-c3ncccc3Cl)n2)c1=O)C(F)(F)F)C1(C(F)(F)F)CC1 [Example 43]
21 | 7.30 | 8.73 | 27.0 | O=C(NC(Cn1c(-c2ccc(Cl)cc2)nn(Cc2ncn(-c3ncccc3Cl)n2)c1=O)C(F)(F)F)C1CCCN1 (stereo not drawn) [Example 47, N-{3-[3-(4-Chlorophenyl)-1-{[1-(3-chloropyridin-2-yl)-1H-1,2,4-triazol-3-yl]methyl}-5-oxo-1,5-dihydro-4H-1,2,4-triazol-4-yl]-1,1,1-trifluoropropan-2-yl}-prolinamide]
22 | 6.82 | 8.49 | 46.9 | O=C(NC(Cn1c(-c2ccc(Cl)cc2)nn(Cc2ncn(-c3ncccc3Cl)n2)c1=O)C(F)(F)F)[C@@H]1CC(C(F)(F)F)CN1 (stereo partly drawn) [Example 50]
